Experimental data from publication PMC9882606, “Rationally designed inhibitors of the Musashi protein-RNA interaction by hotspot mimicry” (Research Square, 2023).

How the values were obtained:
[1] = molecular target: T1, MSI1 RRM1 (Homo sapiens, UniProt O43347); assay: HSQC chemical shift mapping; type: binding; conditions: MSI1 RRM1 in presence vs absence of compound
T1 sequence (O43347 20-110 limits assumed): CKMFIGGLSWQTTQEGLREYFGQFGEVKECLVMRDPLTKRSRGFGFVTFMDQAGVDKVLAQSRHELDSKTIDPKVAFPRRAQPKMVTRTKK
Excerpt: To test the hypothesis that R12–8–44–3 engages MSI1 RRM1 though specific binding interactions (rather than non-specific aggregation), we used HSQC chemical shift mapping. We collected spectra for this construct in the presence and absence of R12–8–44–3 (Figure 3a), using previously-reported assignments from a very similar construct. […] While not all peaks were assigned in our reference spectrum, we gratifyingly find that of the assigned peaks, those with the largest chemical shift differences (Phe23, Lys93) comprise exactly the expected binding site for R12–8–44–3 (Figure 3b).
Figure 3: Structural characterization of R12–8–44–3 / MSI1. (A) HSQC spectrum of MSI1 RRM1 collected in the presence (red) or absence (black) of R12–8–44–3. Assigned peaks showing the strongest chemical shift difference are labeled (Phe23, Lys93). (B) Mapping the location of these residues to our model of R12–8–44–3/MSI1 confirms that these residues comprise the intended binding site.

[2] = molecular target: MSI2 (Homo sapiens, UniProt Q96DH6); assay: Cellular thermal shift assay (CETSA) in K562 cells; type: cell-based; conditions: K562, 3 hours, 20 μM or 40 μM, heated to 49 °C
Excerpt: To explore the effect of these MSI2 inhibitors in a cancer-relevant cellular context, we selected two MSI2-dependent cancer cell lines: non-small cell lung cancer cell line PC9 and leukemia cell line K562 [73, 98–101]. Upon treatment of PC9 cells with Ro, R12–8–44–3, or negative control R12-neg, we found at multiple time points that cellular MSI2 protein levels were unchanged (Figure 6a). To confirm target engagement, we therefore adapted the cellular thermal shift assay (CETSA). […]
Figure 6: Direct cellular engagement of MSI2 interaction by R12–44–3. […] MSI2 protein abundance was then quantified and normalized to untreated sample. One representative image is shown; quantification is presented as the average ± S.E.M. from 3 independent replicates. […] Cells were briefly incubated at temperatures between 40 °C to 67 °C, then centrifuged and the amount of MSI2 remaining in the soluble fraction was quantified by Western blotting. […] One representative image is shown; quantification is presented as the average ± S.E.M. from 3 independent replicates, normalized first to beta-actin and then to DMSO control. […] One representative image is shown; quantification is presented as the average ± S.E.M. from 3 independent replicates, normalized first to beta-actin and then to DMSO control. […]

[3] = test system: PC9 cells; assay: CellTiter-Blue cell viability, PC9; type: cell-based, human; conditions: PC9, 3 days, dose-response
Procedure: (§1) Figure 7: Cellular characterization of MSI2 inhibition by R12–8–44–3. (A) Quantification of mRNA immunoprecipitation (RIP) results. Cells were treated with 10 μM of the indicated compounds for 8 hours. After immunoprecipitation with anti-MSI2, mRNA targets were quantified. The amount of each target mRNA in the pulldown was calculated relative to the input, and results from all targets were normalized to PTP4A1. Treating cells with R12–8–44–3 disrupted the interaction with all four cognate mRNAs (PTP4A, SMAD3, EGFR, and MSI2). Data are presented as the average ± S.E.M. from at least 3 independent replicates. […] Cells were treated with indicated compounds at two concentrations (5 μM and 20 μM) for 48 hours, then protein levels of relevant MSI2 targets were determined (EGFR, SMAD3, and MSI2). One representative image is shown; quantification is presented as the average ± S.E.M. from at least 3 independent replicates, normalized first to beta-actin and then to DMSO-treated cells. (C) Cell viability dose-response quantified by CellTiter-Blue after 3 days (left) and cell proliferation with 10μM of compounds quantified by clonogenic assay after 7 days (right). […] (D) Cell viability quantified by clonogenic assay of PC9 cell line after 7-day treatment with 2 nM osimertinib (osi alone), osimertinib with 10 μM R12–8–44–3, or osimertinib with 10 μM R12-neg. […]

[4] = test system: PC9 cells; assay: Clonogenic assay, PC9; type: cell-based, human; conditions: PC9, 10 μM, 7 days
Procedure: as §1

[5] = molecular target: T1, MSI1 RRM1; assay: Differential Scanning Fluorimetry (DSF); type: binding; conditions: increasing compound dose
Excerpt: Out of concern that R12–7’s activity may be associated with compound aggregation, we elected to continue with optimization of R12–8 (Figure 2b).
To further characterize R12–8–44–3, we applied differential scanning fluorimetry (DSF) as an orthogonal secondary assay. […] While this could be a sign of apparent inhibition occurring through aggregation, there are also legitimate inhibitors that reduce their target protein’s melting temperature. An alternate explanation could simply be that MSI1’s folding landscape is not simply two-state, and that a partially-folded intermediate stabilized by R12–8–44–3 affects the unfolding transition.

Sequence of MSI2 (Q96DH6 whole entry): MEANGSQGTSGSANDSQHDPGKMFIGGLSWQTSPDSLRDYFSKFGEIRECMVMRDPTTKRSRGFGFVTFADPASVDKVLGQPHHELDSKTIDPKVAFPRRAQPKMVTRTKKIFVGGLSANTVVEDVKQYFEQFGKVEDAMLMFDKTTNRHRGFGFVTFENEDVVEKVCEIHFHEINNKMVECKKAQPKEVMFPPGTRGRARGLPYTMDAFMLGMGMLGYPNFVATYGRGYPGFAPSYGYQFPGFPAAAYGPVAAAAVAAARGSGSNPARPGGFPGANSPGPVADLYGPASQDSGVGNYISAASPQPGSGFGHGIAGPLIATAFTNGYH

HSQC chemical shift changes on addition of compound [1]: only a small number of peaks shift
Compound: Cc1cc(C(=O)OCc2nc(N)c3c(C)c(C)sc3n2)c(N)cc1F [R12–8–44–3]
soluble MSI2 after heating (CETSA) [2]: confers protection against thermal-induced aggregation
cell viability (CellTiter-Blue) [3]: no effect on cell growth/survival
cell proliferation (clonogenic assay) [4]: no effect on cell growth/survival
change of the protein's melting temperature [5]: monotonically decreased MSI1’s melting temperature
